Values joined by “and” are separate entries in the source; they are usually repeats but may differ in a detail not shown here. Identical values can stand only once.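 48-hour exposure; five concentrations; linearly interpolated endpoints. GI50 is the concentration that inhibits growth by half. TGI: concentration producing complete growth inhibition.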
Experiments:
Experiment in all cases: growth of human tumour cells (NCI), 48 h
SF-295 CNS = system: SF-295 CNS
OVCAR-4 ovarian = system: OVCAR-4 ovarian
MCF7 breast = system: MCF7 breast
HT29 colon = system: HT29 colon
NCI/ADR-RES ovarian = system: NCI/ADR-RES ovarian
MDA-MB-231 breast = system: MDA-MB-231 breast
T-47D breast = system: T-47D breast
HOP-92 NSCLC = system: HOP-92 NSCLC
SK-OV-3 ovarian = system: SK-OV-3 ovarian
HCC-2998 colon = system: HCC-2998 colon

Row | Compound | GI50 (SF-295 CNS) | TGI (SF-295 CNS) | GI50 (OVCAR-4 ovarian) | TGI (OVCAR-4 ovarian) | GI50 (MCF7 breast) | TGI (MCF7 breast) | GI50 (HT29 colon) | TGI (HT29 colon) | GI50 (NCI/ADR-RES ovarian) | TGI (NCI/ADR-RES ovarian) | GI50 (MDA-MB-231 breast) | TGI (MDA-MB-231 breast) | GI50 (T-47D breast) | GI50 (HOP-92 NSCLC) | TGI (HOP-92 NSCLC) | GI50 (SK-OV-3 ovarian) | TGI (SK-OV-3 ovarian) | TGI (HCC-2998 colon) | TGI (T-47D breast) | GI50 (HCC-2998 colon)
1 | CC(C)NC[C@@H](C(=O)N1CCN(c2ncnc3c2[C@H](C)C[C@H]3O)CC1)c1ccc(Cl)cc1 | 0.68 µM and 0.47 µM | > 75.1 µM | > 74 µM | > 100 µM | 1.6 µM and 1.74 µM | > 100 µM | 1.58 µM and 3.45 µM | > 100 µM | > 100 µM | > 100 µM | > 69 µM | > 100 µM | 0.208 µM and 0.236 µM | 0.407 µM and 1.13 µM | 6.8 µM and 11.6 µM | 0.596 µM and 0.783 µM | > 100 µM | > 100 µM |  | 
2 | CC(C)(C)C[C@H]1NC(C(=O)NCC[C@H](O)CO)[C@H](c2cccc(Cl)c2)[C@@]12C(=O)Nc1cc(Cl)c(F)cc12 (stereo partly drawn) | 13.4 µM | 28.1 µM | 14.8 µM | 32.4 µM | 1.61 µM | 11.7 µM | 17 µM | 32.4 µM | 37 µM | > 100 µM | 14.9 µM | 32.4 µM | 16.7 µM | 13.3 µM | 28.4 µM | 16.3 µM | 34.9 µM | 31.1 µM | 37.7 µM | 16.2 µM
3 | O=C(c1ccccc1)C1N=NCC1c1ccc([N+](=O)[O-])cc1 (stereo not drawn) |  | > 100 µM |  | > 100 µM |  | 56.9 µM |  | > 100 µM |  | > 100 µM |  | > 100 µM |  |  | 88.1 µM |  | > 100 µM | > 100 µM | 30.9 µM | 
4 | O=C(c1ccc(F)cc1)c1cccc(C(=O)c2ccc(F)cc2)n1 |  | 39.3 µM |  | > 100 µM |  | > 100 µM |  | > 100 µM |  | > 100 µM |  | > 100 µM |  |  | 44.4 µM |  | 52.5 µM | > 100 µM | > 100 µM | 
5 | COc1cc(Cl)cc(-c2nn(C(=O)NCCN3CCOCC3)cc2-c2ccncc2)c1 | 2.75 µM | 13.5 µM | 12.6 µM | > 100 µM | 3.54 µM | > 100 µM | 3.98 µM | > 100 µM | 2.87 µM | > 100 µM | 13 µM | > 100 µM | 5.78 µM | 4.35 µM | 84.6 µM | 3.75 µM | 19.7 µM | 39.7 µM | > 100 µM | 7.77 µM
6 | Nc1ccn(Cc2ccc(C34CC5CC(CC(C5)C3)C4)c(O)c2)c(=O)n1 | 31.5 µM | > 100 µM | > 100 µM | > 100 µM | 91.5 µM | > 100 µM | > 100 µM | > 100 µM | > 100 µM | > 100 µM | > 100 µM | > 100 µM | > 100 µM | 22.5 µM | 71.4 µM | > 100 µM | > 100 µM | > 100 µM | > 100 µM | 32.1 µM
7 | COC1(C(=O)N[C@@H](C)c2ccc(-n3cc(F)cn3)nc2)CCC(c2nc(C)cc(Nc3cc(C)[nH]n3)n2)CC1 (stereo partly drawn) | 1.17 µM | 3.95 µM | 1.94 µM | 17.9 µM | 1.53 µM | 14.6 µM | 2.31 µM | 22.4 µM | 3.74 µM | 17.7 µM | 1.14 µM | 4.69 µM | 2.17 µM | 0.481 µM | 2.58 µM | 1.11 µM | 5.07 µM | 23.3 µM | 21.7 µM | 11.1 µM
